Experimental findings from paper PMC7397249, “Properly Substituted Cyclic Bis-(2-bromobenzylidene) Compounds Behaved as Dual p300/CARM1 Inhibitors and Induced Apoptosis in Cancer Cells” (Molecules, 2020) are described below.

One experiment deals with T1, CARM1 (Homo sapiens, UniProt Q86X55).
T1 sequence (Q86X55 1-608): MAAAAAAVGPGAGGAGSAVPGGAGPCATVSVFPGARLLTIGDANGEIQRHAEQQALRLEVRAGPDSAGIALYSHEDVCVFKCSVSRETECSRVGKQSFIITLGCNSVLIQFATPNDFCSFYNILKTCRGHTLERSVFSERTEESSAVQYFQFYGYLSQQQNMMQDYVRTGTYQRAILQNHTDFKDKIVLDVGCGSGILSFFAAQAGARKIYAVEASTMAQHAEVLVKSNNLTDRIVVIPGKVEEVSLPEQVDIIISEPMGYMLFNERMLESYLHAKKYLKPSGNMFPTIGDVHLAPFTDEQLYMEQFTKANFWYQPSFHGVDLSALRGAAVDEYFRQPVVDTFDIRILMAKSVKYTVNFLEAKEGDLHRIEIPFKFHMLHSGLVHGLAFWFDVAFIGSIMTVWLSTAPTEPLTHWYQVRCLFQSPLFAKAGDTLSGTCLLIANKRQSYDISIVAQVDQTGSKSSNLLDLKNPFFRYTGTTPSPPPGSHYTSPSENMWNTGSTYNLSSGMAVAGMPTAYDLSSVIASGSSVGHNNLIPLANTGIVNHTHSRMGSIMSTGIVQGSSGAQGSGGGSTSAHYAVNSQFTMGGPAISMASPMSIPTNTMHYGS
Put plainly: CARM1 assay (histone H3, 3H-SAM). The experiment is classed as biochemical. The procedure: Histone H3 (5 μM) was added in freshly prepared reaction buffer (50 mM Tris-HCl (pH 8.5), 5 mM MgCl2, 50 mM NaCl, 0.01% Brij35, 1 mM DTT, 1% DMSO). CARM1 was delivered into the substrate solution and the mixture was mixed gently. Afterwards, the tested compounds dissolved in DMSO were delivered into the enzyme/substrate reaction mixture by using Acoustic Technology (Echo 550, LabCyte Inc. Sunnyvale, CA) in nanoliter range, and 1 µM ^3H-SAM was also added into the reaction mixture to initiate the reaction. The reaction mixture was incubated for 1 h at 30 °C and then it was delivered to filter-paper for detection. The data were analyzed using Excel and GraphPad Prism software for IC50 curve fits. The experiments were performed in triplicate.

The next experiment addresses T2, SIRT2 (Homo sapiens, UniProt Q8IXJ6).
T2 construct: host or cells: E. coli
Put plainly: Modified Fluor de Lys fluorescence-based assay, SIRT2. The experiment is classed as biochemical. Particulars: from 200 μM; p53 379-382 AMC substrate, NAD+. The procedure: (§1) The newly synthesized compounds 4a–n were tested to determine their effects against acetylation and methylation epigenetic targets. First, 4a–n were screened in vitro against the two HAT enzymes p300 and PCAF. […] To determine the activity against SIRT1 and -2, 4a–n were tested starting from 200 μM solutions using a modified Fluor de Lys fluorescence-based assay with amino acids 379–382 (Arg-His-Lys-Lys(Ac)) of human p53 conjugated with aminomethylcoumarin as substrate and NAD^+ as co-substrate. […] Furthermore, 4a–n were tested against a human five-membered Polycomb repressive complex 2 (PRC2) containing EZH2, embryonic ectoderm development (EED), suppressor of zeste 12 (SUZ12), RbAp48, and adipocyte enhancer-binding protein (AEBP2), to assess their capability to inhibit the catalytic unit EZH2.
The SIRT inhibition assay was performed using human recombinant SIRT1 and SIRT2 produced in E. coli. Compounds were tested using a modified Fluor de Lys fluorescence-based assay kit based on the method described in the BioMol product sheet (AK-555, AK-556, Milan, Italy). […] The second stage is initiated by the addition of the Developer II (KI176), including nicotinamide (NAM), nicotinamide that stops the SIRT1/2 activity, and the fluorescent signal is produced. The fluorescence was measured on a fluorometric reader (Infinite 200 TECAN, Männedorf, Switzerland) with excitation set at 360 nm and emission detection set at 460 nm.

In the next experiment the test system is MCF-7 cells. Put plainly: Cell cycle and apoptosis (sub-G1) analysis by FACS in MCF-7 cells. Type of experiment: cell-based, human. The settings on record: 5 μM, 30 h. The procedure:
Compounds 4a–n were tested at 5 μM for 30 h in NB4 […] and U937 AML cells among hematological cancers, and in MCF-7 breast cancer and SH-SY5Y neuroblastoma cells among solid cancers, to determine their effects in cell cycle and apoptosis induction.
In the same cell lines, the induction of apoptosis has been evaluated through the percentage of the sub-G1 peaks.
For colorimetric exclusion, the cells (2 × 10^5 cells/mL) were plated in multiwells in triplicate. After stimulations at different times and concentrations, cells were diluted in the ratio 1:1 in Trypan Blue (Sigma) and counted with an optical microscope. For cell cycle analyses, cells were plated (2 × 10^5 cells/mL) and were harvested, centrifuged at 1200 rpm for 5 min and resuspended in 500 μL of a hypotonic solution containing 1× PBS, Sodium Citrate 0.1%, 0.1% NP-40, RNAase A and […] Propidium Iodide (PI). After 30 min at room temperature (RT) in the dark, samples were acquired by FACS-Calibur (BD Bioscences, San Jose, CA, USA) using CellQuest software (BD Biosciences). The percentage in different phases of the cell cycle was determined by ModFit LT V3 software (Verity). All experiments were performed in triplicate. Cell death was measured as percentage of cells in sub-G1 phase as in [30].

For a further experiment, the target named is PRC2/EZH2 (Homo sapiens, UniProt Q15910). In words: EZH2/PRC2 assay (core histone, 3H-SAM). Type of experiment: biochemical. Particulars: 10-dose, duplicate, from 400 μM. The procedure:
as §1
The EZH2 substrate (0.05 mg/mL core histone) was added in the freshly prepared reaction buffer (50 mM Tris-HCl (pH 8.0), 50 mM NaCl, 1 mM EDTA, 1 mM DTT, 1 mM PMSF, 1% DMSO). The PRC2 complex (complex of human EZH2, human EED, human SUZ12, human AEBP2, and human RbAp48) was delivered into the substrate solution and the mixture was mixed gently. Afterwards, the tested compounds dissolved in DMSO were delivered into the enzyme/substrate reaction mixture by using Acoustic Technology (Echo 550, LabCyte Inc. Sunnyvale, CA, USA) in nanoliter range, and ^3H-SAM was added into the reaction mixture to initiate the reaction. The reaction mixture was incubated for 1 h at 30 °C and then it was delivered to filter-paper for detection. The data were analyzed using Excel and GraphPad Prism software for IC50 curve fits. The experiments were performed in duplicate.

T2 sequence (Q8IXJ6 whole entry): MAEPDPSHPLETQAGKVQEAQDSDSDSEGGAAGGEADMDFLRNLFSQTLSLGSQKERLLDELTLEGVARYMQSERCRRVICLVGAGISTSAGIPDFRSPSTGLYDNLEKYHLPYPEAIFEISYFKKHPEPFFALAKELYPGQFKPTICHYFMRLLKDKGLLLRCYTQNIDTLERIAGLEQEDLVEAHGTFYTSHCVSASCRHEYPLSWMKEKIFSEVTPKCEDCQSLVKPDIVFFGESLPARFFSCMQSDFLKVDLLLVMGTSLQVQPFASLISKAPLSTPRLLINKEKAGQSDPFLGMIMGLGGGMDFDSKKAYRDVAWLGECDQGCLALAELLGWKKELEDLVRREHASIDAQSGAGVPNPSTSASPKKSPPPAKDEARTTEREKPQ
Chain of PRC2/EZH2 (Q15022 whole entry): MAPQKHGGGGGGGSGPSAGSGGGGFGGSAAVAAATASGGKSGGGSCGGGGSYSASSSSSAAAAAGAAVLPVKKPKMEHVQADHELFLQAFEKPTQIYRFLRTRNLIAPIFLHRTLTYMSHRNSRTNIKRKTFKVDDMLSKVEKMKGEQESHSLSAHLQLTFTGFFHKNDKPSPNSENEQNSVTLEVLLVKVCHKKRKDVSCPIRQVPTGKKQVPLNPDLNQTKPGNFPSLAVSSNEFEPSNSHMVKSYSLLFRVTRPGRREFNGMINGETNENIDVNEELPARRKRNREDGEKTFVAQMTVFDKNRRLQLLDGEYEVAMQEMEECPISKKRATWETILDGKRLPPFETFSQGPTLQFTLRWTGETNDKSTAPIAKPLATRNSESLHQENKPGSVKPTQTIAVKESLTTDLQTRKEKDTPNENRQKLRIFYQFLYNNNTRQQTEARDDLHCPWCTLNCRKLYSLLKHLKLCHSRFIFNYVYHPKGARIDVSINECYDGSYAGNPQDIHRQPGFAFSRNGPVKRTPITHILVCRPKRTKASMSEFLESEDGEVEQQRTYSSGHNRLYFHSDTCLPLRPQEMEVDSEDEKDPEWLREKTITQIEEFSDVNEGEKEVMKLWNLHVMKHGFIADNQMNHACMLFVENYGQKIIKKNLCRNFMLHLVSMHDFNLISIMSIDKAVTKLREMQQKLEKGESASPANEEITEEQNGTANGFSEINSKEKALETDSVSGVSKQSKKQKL
Chain of PRC2/EZH2 (Q09028 whole entry, further chain): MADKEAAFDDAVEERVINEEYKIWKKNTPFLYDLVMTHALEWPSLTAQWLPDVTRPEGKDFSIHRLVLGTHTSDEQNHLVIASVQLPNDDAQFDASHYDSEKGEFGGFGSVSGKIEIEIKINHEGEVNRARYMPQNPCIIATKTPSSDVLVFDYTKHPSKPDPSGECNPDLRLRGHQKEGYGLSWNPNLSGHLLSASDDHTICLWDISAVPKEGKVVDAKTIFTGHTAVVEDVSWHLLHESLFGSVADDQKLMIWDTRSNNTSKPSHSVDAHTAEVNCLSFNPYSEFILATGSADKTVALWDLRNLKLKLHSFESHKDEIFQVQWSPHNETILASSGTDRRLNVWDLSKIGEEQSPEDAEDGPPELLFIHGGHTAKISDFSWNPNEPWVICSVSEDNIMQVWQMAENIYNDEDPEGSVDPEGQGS
Chain of PRC2/EZH2 (Q6ZN18 whole entry, further chain): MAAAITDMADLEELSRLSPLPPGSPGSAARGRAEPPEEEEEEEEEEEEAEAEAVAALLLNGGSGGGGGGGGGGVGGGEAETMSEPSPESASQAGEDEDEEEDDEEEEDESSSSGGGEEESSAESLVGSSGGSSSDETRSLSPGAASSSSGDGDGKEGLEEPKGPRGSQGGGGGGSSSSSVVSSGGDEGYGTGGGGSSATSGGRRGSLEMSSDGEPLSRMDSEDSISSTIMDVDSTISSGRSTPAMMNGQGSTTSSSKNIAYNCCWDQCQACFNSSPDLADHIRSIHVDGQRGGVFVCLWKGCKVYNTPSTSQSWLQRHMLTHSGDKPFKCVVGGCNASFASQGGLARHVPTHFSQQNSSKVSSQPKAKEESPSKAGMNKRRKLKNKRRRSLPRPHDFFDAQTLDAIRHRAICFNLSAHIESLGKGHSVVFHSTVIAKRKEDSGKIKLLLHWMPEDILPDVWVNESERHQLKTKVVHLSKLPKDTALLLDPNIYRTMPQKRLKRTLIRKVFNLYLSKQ
Chain of PRC2/EZH2 (Q15910 whole entry): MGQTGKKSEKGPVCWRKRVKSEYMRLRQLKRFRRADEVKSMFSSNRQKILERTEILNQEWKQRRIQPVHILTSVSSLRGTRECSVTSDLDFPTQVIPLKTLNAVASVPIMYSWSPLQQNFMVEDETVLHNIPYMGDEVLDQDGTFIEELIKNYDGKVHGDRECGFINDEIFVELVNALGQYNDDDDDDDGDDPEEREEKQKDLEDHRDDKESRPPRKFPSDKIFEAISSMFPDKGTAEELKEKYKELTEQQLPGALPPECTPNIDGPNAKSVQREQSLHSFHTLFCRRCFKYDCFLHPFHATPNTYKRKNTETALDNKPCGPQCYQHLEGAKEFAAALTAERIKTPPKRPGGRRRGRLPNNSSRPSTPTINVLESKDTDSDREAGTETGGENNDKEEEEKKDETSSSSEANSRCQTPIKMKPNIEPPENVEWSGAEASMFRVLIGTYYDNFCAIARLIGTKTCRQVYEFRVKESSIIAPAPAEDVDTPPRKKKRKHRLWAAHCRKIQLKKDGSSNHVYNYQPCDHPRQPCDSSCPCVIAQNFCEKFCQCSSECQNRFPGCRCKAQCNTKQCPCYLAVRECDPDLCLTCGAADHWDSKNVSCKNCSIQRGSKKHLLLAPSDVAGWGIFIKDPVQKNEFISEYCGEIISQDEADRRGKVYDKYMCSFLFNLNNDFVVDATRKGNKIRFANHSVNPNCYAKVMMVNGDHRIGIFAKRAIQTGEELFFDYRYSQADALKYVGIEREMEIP
Chain of PRC2/EZH2 (O75530 whole entry, further chain): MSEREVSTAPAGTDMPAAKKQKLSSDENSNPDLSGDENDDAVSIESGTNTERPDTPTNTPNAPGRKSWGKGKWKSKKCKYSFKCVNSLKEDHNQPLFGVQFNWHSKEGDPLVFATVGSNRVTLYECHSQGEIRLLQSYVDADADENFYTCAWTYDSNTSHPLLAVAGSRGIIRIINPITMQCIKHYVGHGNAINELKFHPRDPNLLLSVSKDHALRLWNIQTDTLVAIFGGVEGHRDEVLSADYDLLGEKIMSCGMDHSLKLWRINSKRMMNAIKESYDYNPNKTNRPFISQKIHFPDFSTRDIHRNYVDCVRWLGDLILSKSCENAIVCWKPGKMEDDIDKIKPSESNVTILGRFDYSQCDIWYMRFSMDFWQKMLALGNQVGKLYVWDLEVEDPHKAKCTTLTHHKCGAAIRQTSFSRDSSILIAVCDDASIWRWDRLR

As to `O=C1/C(=C/c2ccccc2Br)CN(Cc2ccccc2)C/C1=C\c1ccccc1Br` [Compound 4e, 1-benzyl-3,5-bis((E)-2-bromobenzylidene)piperidin-4-one], the figures for the IC50 against CARM1, at SIRT2 and on PRC2/EZH2 were 6.5 ± 0.86 µM, above 200 µM and 44.2 ± 0.2 µM, respectively. Also, in the experiment with MCF-7 cells, the “cell cycle: block in G1/S phase with almost total absence of cells in the G2/M phase” value (“cell cycle: block … in the G2/M phase” below) is recorded as “almost total absence of cells”.

As to `O=C1/C(=C/c2ccccc2Br)CN(CCc2ccccc2)C/C1=C\c1ccccc1Br` [Compound 4f, 3,5-Bis((E)-2-bromobenzylidene)-1-phenethylpiperidin-4-one], the results for the 50% inhibitory concentration (IC50) on CARM1 and at SIRT2 were 18.5 ± 0.9 µM and above 200 µM, respectively.

Consider `O=C1/C(=C/c2ccccc2Br)CN(CCCc2ccccc2)C/C1=C\c1ccccc1Br` [Compound 4g, 3,5-Bis((E)-2-bromobenzylidene)-1-(3-phenylpropyl)piperidin-4-one], for which the IC50 on CARM1 is 12.6 ± 2.6 µM; against SIRT2, above 200 µM.

`O=C1/C(=C/c2ccccc2Br)CN(CC(=O)c2ccccc2)C/C1=C\c1ccccc1Br` [Compound 4h, 3,5-Bis((E)-2-bromobenzylidene)-1-(2-oxo-2-phenylethyl)piperidin-4-one]: the IC50 on CARM1 was 5.52 ± 0.78 µM; on SIRT2 it was above 200 µM; at PRC2/EZH2 it was 46 ± 8.1 µM. The “induction of apoptosis, % sub-G1 peaks” value in the experiment with MCF-7 cells is on record as “around 25%”.

With `O=C1/C(=C/c2ccccc2Br)CN(CCCC(=O)c2ccccc2)C/C1=C\c1ccccc1Br` [Compound 4j, 3,5-Bis((E)-2-bromobenzylidene)-1-(4-oxo-4-phenylbutyl)piperidin-4-one], the figures for the IC50 against CARM1, on SIRT2 and against PRC2/EZH2 were 4.8 ± 1.72 µM, above 200 µM and 68.5 ± 6.2 µM, respectively. Moreover, the “cell cycle: block … in the G2/M phase” value with MCF-7 cells is “almost total absence of cells”.

As for `O=C1/C(=C/c2ccccc2Br)CN(C(=O)c2ccccc2)C/C1=C\c1ccccc1Br` [Compound 4k, 1-Benzoyl-3,5-bis((E)-2-bromobenzylidene)piperidin-4-one], the IC50 against CARM1 is 1.33 ± 0.14 µM; on SIRT2, above 200 µM; at PRC2/EZH2 it was 40.7 ± 15.3 µM. The “cell cycle: block in G1/S phase with almost total absence of cells in the S phase” value (shortened to “cell cycle: block in G1/S phase … in the S phase”) in the experiment with MCF-7 cells is listed as “almost total absence of cells”.

In the case of `O=C1/C(=C/c2ccccc2Br)CN(C(=O)Cc2ccccc2)C/C1=C\c1ccccc1Br` [Compound 4l, 3,5-Bis((E)-2-bromobenzylidene)-1-(2-phenylacetyl)piperidin-4-one], the IC50 is 0.43 ± 0.12 µM against CARM1, above 200 µM at SIRT2 and 15.2 ± 2.2 µM against PRC2/EZH2. For the same molecule, in the experiment with MCF-7 cells, the “cell cycle: block in G1/S phase … in the S phase” value was “almost total absence of cells”.

With `O=C1/C(=C/c2ccccc2Br)CN(C(=O)CCc2ccccc2)C/C1=C\c1ccccc1Br` [Compound 4m, 3,5-Bis((E)-2-bromobenzylidene)-1-(3-phenylpropanoyl)piperidin-4-one], the results for the IC50 on CARM1, against SIRT2 and on PRC2/EZH2 were 0.79 ± 0.06 µM, above 200 µM and 11.3 ± 0.08 µM, respectively. In the experiment on MCF-7 cells, the “cell cycle: block … in the G2/M phase” value is “almost total absence of cells”.

As for `O=C1/C(=C/c2ccccc2Br)CN(C(=O)C=Cc2ccccc2)C/C1=C\c1ccccc1Br` [Compound 4n, 3,5-Bis((E)-2-bromobenzylidene)-1-cinnamoylpiperidin-4-one], the IC50 on CARM1 was 7.14 ± 2.54 µM; against SIRT2, above 200 µM; at PRC2/EZH2, 13.9 ± 1.8 µM. Further, the “cell cycle: block … in the G2/M phase” value with MCF-7 cells was “almost total absence of cells”. For the same molecule, the “cell cycle: block in G1/S phase … in the S phase” value with MCF-7 cells was “almost total absence of cells”.
